Data on 35 compounds can be found in patent US20090143361A1, “Pyrido[3,2-E]Pyrazines, Process For Preparing The Same, And Their Use As Inhibitors Of Phosphodiesterase 10” (ELBION GMBH, priority 2007, published 2009).

Bounds are passed on as bounds.

In the first assay the target is T1, human recombinant PDE10A (Homo sapiens, UniProt Q9Y233).
T1 construct: made in house; host or cells: SF21 insect cells (baculovirus)
T1 sequence (Q9Y233 1-779 isoform Q9Y233-1): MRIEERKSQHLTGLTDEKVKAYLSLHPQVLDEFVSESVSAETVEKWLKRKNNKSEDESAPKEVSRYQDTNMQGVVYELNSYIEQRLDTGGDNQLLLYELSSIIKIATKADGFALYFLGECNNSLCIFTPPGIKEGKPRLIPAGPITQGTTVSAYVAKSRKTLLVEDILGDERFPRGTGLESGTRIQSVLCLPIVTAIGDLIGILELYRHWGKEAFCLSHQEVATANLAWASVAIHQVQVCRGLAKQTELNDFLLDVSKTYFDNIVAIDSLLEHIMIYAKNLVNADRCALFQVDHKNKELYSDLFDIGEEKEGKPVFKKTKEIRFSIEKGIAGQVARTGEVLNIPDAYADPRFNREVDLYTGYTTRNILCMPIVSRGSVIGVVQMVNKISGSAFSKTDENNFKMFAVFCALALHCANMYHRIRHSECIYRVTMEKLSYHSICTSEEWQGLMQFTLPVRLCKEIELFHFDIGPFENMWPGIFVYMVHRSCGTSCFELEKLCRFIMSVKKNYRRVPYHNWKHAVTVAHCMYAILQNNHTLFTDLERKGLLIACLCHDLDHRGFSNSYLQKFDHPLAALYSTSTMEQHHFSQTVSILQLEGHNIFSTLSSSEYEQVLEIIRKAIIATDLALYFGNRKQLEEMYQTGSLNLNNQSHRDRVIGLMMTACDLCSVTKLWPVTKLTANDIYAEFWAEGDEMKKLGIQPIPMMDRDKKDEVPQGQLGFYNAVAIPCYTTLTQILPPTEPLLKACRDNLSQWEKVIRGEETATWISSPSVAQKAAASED
Description: Inhibition of PDE10, human recombinant PDE10A ([3H]-cAMP SPA). The assay is classed as biochemical. Particulars: Table 8, cell marked Human PDE10; read-out: IC50 (nM) (Human PDE10). The protocol: The gene was than inserted into a baculovirus vector, ligated with the baculovirus DNA. The enzyme-protein was expressed in SF21-cells. The enzyme was isolated from these cells by harvesting the cells by a centrifugation at 200 g to collect the cells. The cells were resuspended in 50 mM Tris-HCl/5 mM MgCl2 buffer (pH=7.4) and lysed by a sonication of the cells. The cytosolic PDE10A was obtained by a centrifugation at 48000 g for 1 h in the supernatant and stored at −70° C. PDE10 activity was determined in a one step procedure in microtiterplates. […] Nonspecific activity was tested without the enzyme. The reaction was initiated by addition of the substrate solution and was carried out at 37° C. for 30 minutes. Enzymatic activity was stopped by addition of 25 μl YSi-SPA-beads (Amersham-Pharmacia). One hour later the mixture was measured in a liquid scintillation counter for microtiterplates (Microbeta Trilux). To pipette the incubation mixture a robot Biomek (Fa. Beckman) is used. […] For determination of IC50 values the Hill-plot, 2-parameter-model, was used.
Take `CCCc1nc(C)c2c(C)nc3ccc(=O)[nH]c3n12` [Example 46, 6,7-Dimethyl-9-propylimidazo[1,5-a]pyrido[3,2-e]pyrazin-2(1H)-one]: the IC50 was more than 100 nM.

The assay is the same for the next values; noted with them: Table 9; read-out: hPDE10 IC50.
Turning to `Cc1ccccc1-c1nc(C)c2c(C)nc3ccc(OCC4CC4)nc3n12` [Example 123, 2-(cyclopropylmethoxy)-6,7-dimethyl-9-(2-methylphenyl)imidazo[1,5-a]pyrido[3,2-e]pyrazine], the IC50 was less than 10 nM.
`COc1ccc2nc(C)c3c(C)nc(-c4cc(F)cc(C(N)=O)c4)n3c2n1` [Example 129, 3-fluoro-5-(2-methoxy-6,7-dimethylimidazo[1,5-a]pyrido[3,2-e]pyrazin-9-yl)benzamide]: the IC50 was less than 10 nM.
The same measure, in the same setting: to `COc1ccc2nc(C)c3c(C)nc(-c4ccc(F)c(C(N)=O)c4)n3c2n1` [Example 130, 2-fluoro-5-(2-methoxy-6,7-dimethylimidazo[1,5-a]pyrido[3,2-e]pyrazin-9-yl)benzamide] belongs less than 10 nM; to `COc1ccc2nc(C)c3c(C)nc(-c4ccc(Cl)c(C(N)=O)c4)n3c2n1` [Example 131, 2-chloro-5-(2-methoxy-6,7-dimethylimidazo[1,5-a]pyrido[3,2-e]pyrazin-9-yl)benzamide], 10 to 100 nM.
On the same count and under the same terms, to `COc1ccc2nc(C)c3c(C)nc(-c4ccc(C(N)=O)c(Cl)c4)n3c2n1` [Example 132, 2-chloro-4-(2-methoxy-6,7-dimethylimidazo[1,5-a]pyrido[3,2-e]pyrazin-9-yl)benzamide] belongs less than 10 nM.
With `COc1ccc2nc(C)c3c(C)nc(CC#N)n3c2n1` [Example 133, (2-Methoxy-6,7-dimethylimidazo[1,5-a]pyrido[3,2-e]pyrazin-9-yl)acetonitrile], the half-inhibitory concentration (IC50) is more than 100 nM.
Regarding `Cc1ccc(Cl)cc1-c1nc(C)c2c(C)nc3ccc(OCC4CC4)nc3n12` [Example 134, 9-(5-chloro-2-methylphenyl)-2-(cyclopropylmethoxy)-6,7-dimethylimidazo[1,5-a]pyrido[3,2-e]pyrazine], the IC50 was 10 to 100 nM.
In the case of `Cc1cc(F)ccc1-c1nc(C)c2c(C)nc3ccc(OCC4CC4)nc3n12` [Example 135, 2-(cyclopropylmethoxy)-9-(4-fluoro-2-methylphenyl)-6,7-dimethylimidazo[1,5-a]pyrido[3,2-e]pyrazine], the half-inhibitory concentration (IC50) was 10 to 100 nM.
For the compound `Cc1c(F)cccc1-c1nc(C)c2c(C)nc3ccc(OCC4CC4)nc3n12` [Example 136, 2-(cyclopropylmethoxy)-9-(3-fluoro-2-methylphenyl)-6,7-dimethylimidazo[1,5-a]pyrido[3,2-e]pyrazine], the IC50 was less than 10 nM.
The same measure, in the same setting: to `Cc1nc(-c2ccc(Cl)cc2C(F)(F)F)n2c1c(C)nc1ccc(OCC3CC3)nc12` [Example 137, 9-[4-chloro-2-(trifluoromethyl)phenyl]-2-(cyclopropylmethoxy)-6,7-dimethylimidazo[1,5-a]pyrido[3,2-e]pyrazine] belongs 10 to 100 nM; to `Cc1nc(-c2ccc(F)cc2Cl)n2c1c(C)nc1ccc(OCC3CC3)nc12` [Example 138, 9-(2-chloro-4-fluorophenyl)-2-(cyclopropylmethoxy)-6,7-dimethylimidazo[1,5-a]pyrido[3,2-e]pyrazine], less than 10 nM.
In the case of `COc1ccc(-c2nc(C)c3c(C)nc4ccc(OCC5CC5)nc4n23)cn1` [Example 139, 2-(cyclopropylmethoxy)-9-(6-methoxypyridin-3-yl)-6,7-dimethylimidazo[1,5-a]pyrido[3,2-e]pyrazine], the half-inhibitory concentration (IC50) is more than 100 nM.
Still for that read-out and setting: to `Cc1ccncc1-c1nc(C)c2c(C)nc3ccc(OCC4CC4)nc3n12` [Example 140, 2-(cyclopropylmethoxy)-6,7-dimethyl-9-(4-methylpyridin-3-yl)imidazo[1,5-a]pyrido[3,2-e]pyrazine] belongs 10 to 100 nM.
Regarding `Cc1nc(F)ccc1-c1nc(C)c2c(C)nc3ccc(OCC4CC4)nc3n12` [Example 141, 2-(cyclopropylmethoxy)-9-(6-fluoro-2-methylpyridin-3-yl)-6,7-dimethylimidazo[1,5-a]pyrido[3,2-e]pyrazine], the IC50 was less than 10 nM.
Still for that read-out and setting: to `Cc1nc(-c2ccc(C(N)=O)cc2)n2c1c(C)nc1ccc(OCC3CC3)nc12` [Example 142, 4-[2-(cyclopropylmethoxy)-6,7-dimethylimidazo[1,5-a]pyrido[3,2-e]pyrazin-9-yl]benzamide] belongs less than 10 nM; to `Cc1nc(-c2cccc(C(N)=O)c2)n2c1c(C)nc1ccc(OCC3CC3)nc12` [Example 143, 3-[2-(cyclopropylmethoxy)-6,7-dimethylimidazo[1,5-a]pyrido[3,2-e]pyrazin-9-yl]benzamide], less than 10 nM; to `Cc1nc(-c2ccc(F)c(C(N)=O)c2)n2c1c(C)nc1ccc(OCC3CC3)nc12` [Example 144, 5-(2-(cyclopropylmethoxy)-6,7-dimethylimidazo[1,5-a]pyrido[3,2-e]pyrazin-9-yl)-2-fluorobenzamide], less than 10 nM.
Still for that read-out and setting: to `Cc1nc(-c2cc(F)cc(C(N)=O)c2)n2c1c(C)nc1ccc(OCC3CC3)nc12` [Example 145, 3-[2-(cyclopropylmethoxy)-6,7-dimethylimidazo[1,5-a]pyrido[3,2-e]pyrazin-9-yl]-5-fluorobenzamide] belongs less than 10 nM.
Same read-out and setting: to `Cc1ccc(C(=O)O)cc1-c1nc(C)c2c(C)nc3ccc(OCC4CC4)nc3n12` [Example 146, 3-[2-(cyclopropylmethoxy)-6,7-dimethylimidazo[1,5-a]pyrido[3,2-e]pyrazin-9-yl]-4-methylbenzoic acid] belongs more than 100 nM; to `Cc1cc(C(=O)O)ccc1-c1nc(C)c2c(C)nc3ccc(OCC4CC4)nc3n12` [Example 147, 4-[2-(cyclopropylmethoxy)-6,7-dimethylimidazo[1,5-a]pyrido[3,2-e]pyrazin-9-yl]-3-methylbenzoic acid], more than 100 nM; to `Cc1nc(-c2cccc(S(N)(=O)=O)c2)n2c1c(C)nc1ccc(OCC3CC3)nc12` [Example 148, 3-[2-(cyclopropylmethoxy)-6,7-dimethylimidazo[1,5-a]pyrido[3,2-e]pyrazin-9-yl]benzenesulfonamide], more than 100 nM.
On to `Cc1ccc(C(N)=O)cc1-c1nc(C)c2c(C)nc3ccc(OCC4CC4)nc3n12` [Example 149, 3-[2-(cyclopropylmethoxy)-6,7-dimethylimidazo[1,5-a]pyrido[3,2-e]pyrazin-9-yl]-4-methylbenzamide], for which the IC50 was less than 10 nM.
For `Cc1cc(C(N)=O)ccc1-c1nc(C)c2c(C)nc3ccc(OCC4CC4)nc3n12` [Example 150, 4-[2-(cyclopropylmethoxy)-6,7-dimethylimidazo[1,5-a]pyrido[3,2-e]pyrazin-9-yl]-3-methylbenzamide], the IC50 was less than 10 nM.
Turning to `Cc1nc(-c2cc(C(N)=O)ccc2F)n2c1c(C)nc1ccc(OCC3CC3)nc12` [Example 151, 3-[2-(cyclopropylmethoxy)-6,7-dimethylimidazo[1,5-a]pyrido[3,2-e]pyrazin-9-yl]-4-fluorobenzamide], the IC50 was less than 10 nM.
Still for that read-out and setting: to `Cc1ccccc1-c1nc(C)c2c(C)nc3ccc(=O)[nH]c3n12` [Example 152, 6,7-Dimethyl-9-o-tolylimidazo[1,5-a]pyrido[3,2-e]pyrazin-2(1H)-one] belongs 10 to 100 nM.
`Cc1ccccc1-c1nc(C)c2c(C)nc3ccc(OCC(F)F)nc3n12` [Example 153, 2-(2,2-difluoroethoxy)-6,7-dimethyl-9-(2-methylphenyl)imidazo[1,5-a]pyrido[3,2-e]pyrazine]: the IC50 is less than 10 nM.
With `Cc1ccccc1-c1nc(C)c2c(C)nc3ccc(OCCF)nc3n12` [Example 154, 2-(2-fluoroethoxy)-6,7-dimethyl-9-(2-methylphenyl)imidazo[1,5-a]pyrido[3,2-e]pyrazine], the concentration for half-maximal inhibition (IC50) was less than 10 nM.
Regarding `Cc1ccccc1-c1nc(C)c2c(C)nc3ccc(OCC(F)(F)F)nc3n12` [Example 155], the concentration for half-maximal inhibition (IC50) is 10 to 100 nM.
In the case of `Cc1ccccc1-c1nc(C)c2c(C)nc3ccc(OCc4ccc(F)cc4)nc3n12` [Example 157, 2-[(4-fluorobenzyl)oxy]-6,7-dimethyl-9-(2-methylphenyl)imidazo[1,5-a]pyrido[3,2-e]pyrazine], the 50% inhibitory concentration (IC50) is 10 to 100 nM.
Same read-out and setting: to `Cc1ccccc1-c1nc(C)c2c(C)nc3ccc(OCc4ccncc4)nc3n12` [Example 158, 6,7-dimethyl-9-(2-methylphenyl)-2-(pyridin-4-ylmethoxy)imidazo[1,5-a]pyrido[3,2-e]pyrazine] belongs less than 10 nM.
The same measure, in the same setting: to `Cc1ccncc1-c1nc(C)c2c(C)nc3ccc(=O)[nH]c3n12` [Example 159, 6,7-Dimethyl-9-(4-methylpyridin-3-yl)imidazo[1,5-a]pyrido[3,2-e]pyrazin-2(H)-one] belongs more than 100 nM.
In the case of `COc1ccc2nc(C)c3c(C)nc(-c4ccncc4OC)n3c2n1` [Example 161, 2-Methoxy-9-(3-methoxypyridin-4-yl)-6,7-dimethylimidazo[1,5-a]pyrido[3,2-e]pyrazine], the IC50 was in the range of 10 to 100 nM.
Consider `COc1ccc2nc(C#N)c3c(C)nc(-c4ccccc4C)n3c2n1` [Example 165, 2-methoxy-7-methyl-9-(2-methylphenyl)imidazo[1,5-a]pyrido[3,2-e]pyrazine-6-carbonitrile], for which the IC50 was 10 to 100 nM.
As to `COc1ccc2nc(C#N)c3c(C)nc(-c4cc(C(N)=O)ccc4F)n3c2n1` [Example 166, 3-(6-cyano-2-methoxy-7-methylimidazo[1,5-a]pyrido[3,2-e]pyrazin-9-yl)-4-fluorobenzamide], the concentration for half-maximal inhibition (IC50) was less than 10 nM.

One may read the IC50 as the concentration needed to halve the response being measured.
